Laboratory results published in EP0414533A1, “Use of iodopropargyl esters of alpha-amino acid derivatives as antimicrobial agents” (ROHM AND HAAS COMPANY, priority 1989, dated 1991).
In brackets after ≈: the same amount, converted by molar mass. Where two headings read alike, the source gives them in different places.

How the values were obtained:
COL = assay: In-vitro plant fungicide test; type: cell-based; conditions: Table IVb, read-out: % Control at (ppm) indicated COL
THREE FUNGI = assay: MIC test against three fungi in Mycophile Broth, pH 5.0, read after 8 days (Table VII); type: cell-based; conditions: 192 h, serial dilutions from 50 ppm, read after 8 days of incubation
[1] = system: Pseudomonas fluorescens (PSFL); assay: Minimum inhibitory concentration (MIC), broth two-fold serial dilution test; conditions: Pseudomonas fluorescens, IIIB, read-out: MIC (G-) PSFL, trypticase soy broth (complex media); Table IIIb
Source text: (§1) When the test is ready to be done, each vessel in the dilution series, except the first vessel, contains an equal volume of compound free broth. The first vessel contains twice the volume of broth with the starting concentration of test compound. One half of the broth from the first vessel is transferred to the second vessel. After being mixed, one half the resulting volume is removed from the second vessel and transferred to the third vessel. The entire cycle is repeated sufficiently to give a series of concentrations amounting to 500, 250, 125, 63, 31, 16, 8, and 4 ppm (or 100, 50, 25, 12.5, 6.2, 3.1, 1.6, and 0.8), respectively.
(§2) Each vessel is then inoculated with a cell suspension of the appropriate test organism. Bacteria are grown in broth, fungi on agar slants for a time and at a temperature appropriate to the species being tested, and algae are a mixture of green algae and blue-green bacteria grown in a nutrient media. At the end of the growth period, in the case of bacteria, the broth is vortexed to disperse the cells.
(§3) The vessels are then incubated at the appropriate temperature. After the incubation, the vessels are examined for growth/no growth.

[2] = system: Cochliobolus sativus (HEL); assay: In-vitro plant fungicide test; type: cell-based; conditions: Bipolaris sorokiniana
Septoria nodorum (SEP) = assay: In-vitro plant fungicide test; type: cell-based; conditions: Parastagonospora nodorum
Botrytis cinerea (BOC) = assay: In-vitro plant fungicide test; type: cell-based; conditions: Botrytis cinerea
MON = assay: In-vitro plant fungicide test; type: cell-based; conditions: Table IVb, read-out: % Control at (ppm) indicated MON
ALT = assay: In-vitro plant fungicide test; type: cell-based; conditions: Table IVb, read-out: % Control at (ppm) indicated ALT
Rhizoctonia solani (RHI) = assay: In-vitro plant fungicide test; type: cell-based; conditions: Rhizoctonia solani
Escherichia coli (ECOL) = assay: Minimum inhibitory concentration (MIC), broth two-fold serial dilution test; conditions: Escherichia coli, IIIB, read-out: MIC (G-) ECOL, trypticase soy broth (complex media); Table IIIb
Source text: as §1, §2, §3

CER = assay: In-vitro plant fungicide test; type: cell-based; conditions: Table IVb, read-out: % Control at (ppm) indicated CER
Pythium ultimum (PYU) = assay: In-vitro plant fungicide test; type: cell-based; conditions: Globisporangium ultimum
PSH = assay: In-vitro plant fungicide test; type: cell-based; conditions: Table IVb, read-out: % Control at (ppm) indicated PSH
[3] = system: Xanthomonas campestris (XAN); assay: In-vitro plant fungicide test; type: cell-based; conditions: Xanthomonas campestris; 25 ppm; Table IVa; read-out: % Control at 25 ppm XAN
8 FUNGI = assay: Microbicides secondary test against 8 fungi on Mycophile Agar at pH 5.0 (Table VI); type: cell-based; parameters: key: 1= no growth; 0= growth of the indicated fungi at dose indicated in ppm; conditions: for ANIG growth: Aspergillus niger; for APUL growth: Aureobasidium pullulans; for CGLO growth: Chaetomium globosum; for CRES growth: Cladosporium resinae; for GTRA growth: Gloeophyllum trabeum; for PFUN growth: Penicillium funiculosum; for RRUB growth: Rhodotorula rubra; for SSER growth: Sacharomyces cerevisiae
Source text: The results of the minimum inhibitory concentration (MIC) tests of compounds of this invention are shown in Tables IIIa IIIb, IIIc, V, VI, VII, and VIII against the microorganisms shown in Table IX.

## O=C(CN1C(=O)c2ccccc2C1=O)OCC#CI [Compound 30, N-phthaloylglycine iodopropargyl ester]
COL; 1.5 ppm
  inhibition of growth at 1.5 ppm: 0%
COL; 3 ppm
  inhibition of growth at 3 ppm: 0%
COL; 6 ppm
  inhibition of growth at 6 ppm: 50%
COL; 12 ppm
  inhibition of growth at 12 ppm: 100%
COL; 25 ppm
  inhibition of growth at 25 ppm: 100%
COL; .2 ppm
  inhibition of growth at 0.2 ppm: 0%
COL; .4 ppm
  inhibition of growth at 0.4 ppm: 0%
COL; .8 ppm
  inhibition of growth at 0.8 ppm: 0%
THREE FUNGI; Aspergillus niger, read-out: MIC ANIG
  MIC: 12.5 µg/mL (≈ 33.9 µM)
THREE FUNGI; Aureobasidium pullulans, read-out: MIC APUL
  MIC: 50 µg/mL (≈ 135 µM)
THREE FUNGI; Gloeophyllum trabeum, read-out: MIC GTRA
  MIC: 6.2 µg/mL (≈ 16.8 µM)
[1]
  MIC: > 250 µg/mL
[2]; 1.5 ppm, Table IVb, read-out: % Control at (ppm) indicated HEL
  inhibition of growth at 1.5 ppm: 0%
[2]; 6 ppm, Table IVb, read-out: % Control at (ppm) indicated HEL
  inhibition of growth at 6 ppm: 100%
[2]; Table IVa, *=Phytotoxic, read-out: % Control at 25 ppm HEL
  inhibition of growth at 25 ppm: 100%
[2]; Table IVb, read-out: % Control at (ppm) indicated HEL
  inhibition of growth at 25 ppm: 100%
[2]; .2 ppm, Table IVb, read-out: % Control at (ppm) indicated HEL
  inhibition of growth at 0.2 ppm: 0%
[2]; .4 ppm, Table IVb, read-out: % Control at (ppm) indicated HEL
  inhibition of growth at 0.4 ppm: 0%
[2]; .8 ppm, Table IVb, read-out: % Control at (ppm) indicated HEL
  inhibition of growth at 0.8 ppm: 0%
Septoria nodorum (SEP); 1.5 ppm, Table IVb, read-out: % Control at (ppm) indicated SEP
  inhibition of growth at 1.5 ppm: 100%
Septoria nodorum (SEP); 6 ppm, Table IVb, read-out: % Control at (ppm) indicated SEP
  inhibition of growth at 6 ppm: 100%
Septoria nodorum (SEP); Table IVa, read-out: % Control at 25 ppm SEP
  inhibition of growth at 25 ppm: 75%
Septoria nodorum (SEP); Table IVb, read-out: % Control at (ppm) indicated SEP
  inhibition of growth at 25 ppm: 100%
Septoria nodorum (SEP); .2 ppm, Table IVb, read-out: % Control at (ppm) indicated SEP
  inhibition of growth at 0.2 ppm: 0%
Septoria nodorum (SEP); .4 ppm, Table IVb, read-out: % Control at (ppm) indicated SEP
  inhibition of growth at 0.4 ppm: 0%
Septoria nodorum (SEP); .8 ppm, Table IVb, read-out: % Control at (ppm) indicated SEP
  inhibition of growth at 0.8 ppm: 100%
Botrytis cinerea (BOC); 1.5 ppm, Table IVb, read-out: % Control at (ppm) indicated BOC
  inhibition of growth at 1.5 ppm: 0%
Botrytis cinerea (BOC); 6 ppm, Table IVb, read-out: % Control at (ppm) indicated BOC
  inhibition of growth at 6 ppm: 0%
Botrytis cinerea (BOC); Table IVa, *=Phytotoxic, read-out: % Control at 25 ppm BOC
  inhibition of growth at 25 ppm: 100%
Botrytis cinerea (BOC); Table IVb, read-out: % Control at (ppm) indicated BOC
  inhibition of growth at 25 ppm: 90%
Botrytis cinerea (BOC); .2 ppm, Table IVb, read-out: % Control at (ppm) indicated BOC
  inhibition of growth at 0.2 ppm: 0%
Botrytis cinerea (BOC); .4 ppm, Table IVb, read-out: % Control at (ppm) indicated BOC
  inhibition of growth at 0.4 ppm: 0%
Botrytis cinerea (BOC); .8 ppm, Table IVb, read-out: % Control at (ppm) indicated BOC
  inhibition of growth at 0.8 ppm: 0%
MON; 1.5 ppm
  inhibition of growth at 1.5 ppm: 100%
MON; 6 ppm
  inhibition of growth at 6 ppm: 100%
MON; 25 ppm
  inhibition of growth at 25 ppm: 100%
MON; .2 ppm
  inhibition of growth at 0.2 ppm: 100%
MON; .4 ppm
  inhibition of growth at 0.4 ppm: 100%
MON; .8 ppm
  inhibition of growth at 0.8 ppm: 100%
ALT; 1.5 ppm
  inhibition of growth at 1.5 ppm: 0%
ALT; 3 ppm
  inhibition of growth at 3 ppm: 50%
ALT; 6 ppm
  inhibition of growth at 6 ppm: 90%
ALT; 12 ppm
  inhibition of growth at 12 ppm: 100%
ALT; 25 ppm
  inhibition of growth at 25 ppm: 100%
ALT; .2 ppm
  inhibition of growth at 0.2 ppm: 0%
ALT; .4 ppm
  inhibition of growth at 0.4 ppm: 0%
ALT; .8 ppm
  inhibition of growth at 0.8 ppm: 0%
Rhizoctonia solani (RHI); 1.5 ppm, Table IVb, read-out: % Control at (ppm) indicated RHI
  inhibition of growth at 1.5 ppm: 0%
Rhizoctonia solani (RHI); 6 ppm, Table IVb, read-out: % Control at (ppm) indicated RHI
  inhibition of growth at 6 ppm: 100%
Rhizoctonia solani (RHI); Table IVa, read-out: % Control at 25 ppm RHI
  inhibition of growth at 25 ppm: 90%
Rhizoctonia solani (RHI); Table IVb, read-out: % Control at (ppm) indicated RHI
  inhibition of growth at 25 ppm: 100%
Rhizoctonia solani (RHI); .2 ppm, Table IVb, read-out: % Control at (ppm) indicated RHI
  inhibition of growth at 0.2 ppm: 0%
Rhizoctonia solani (RHI); .4 ppm, Table IVb, read-out: % Control at (ppm) indicated RHI
  inhibition of growth at 0.4 ppm: 0%
Rhizoctonia solani (RHI); .8 ppm, Table IVb, read-out: % Control at (ppm) indicated RHI
  inhibition of growth at 0.8 ppm: 0%
Escherichia coli (ECOL)
  MIC: > 250 µg/mL
CER; 1.5 ppm
  inhibition of growth at 1.5 ppm: 0%
CER; 25 ppm
  inhibition of growth at 25 ppm: 100%
CER; .2 ppm
  inhibition of growth at 0.2 ppm: 0%
CER; .4 ppm
  inhibition of growth at 0.4 ppm: 0%
CER; .8 ppm
  inhibition of growth at 0.8 ppm: 0%
Pythium ultimum (PYU); 1.5 ppm, Table IVb, read-out: % Control at (ppm) indicated PYU
  inhibition of growth at 1.5 ppm: 100%
Pythium ultimum (PYU); 6 ppm, Table IVb, read-out: % Control at (ppm) indicated PYU
  inhibition of growth at 6 ppm: 100%
Pythium ultimum (PYU); Table IVa, read-out: % Control at 25 ppm PYU
  inhibition of growth at 25 ppm: 100%
Pythium ultimum (PYU); Table IVb, read-out: % Control at (ppm) indicated PYU
  inhibition of growth at 25 ppm: 100%
Pythium ultimum (PYU); .2 ppm, Table IVb, read-out: % Control at (ppm) indicated PYU
  inhibition of growth at 0.2 ppm: 100%
Pythium ultimum (PYU); .4 ppm, Table IVb, read-out: % Control at (ppm) indicated PYU
  inhibition of growth at 0.4 ppm: 100%
Pythium ultimum (PYU); .8 ppm, Table IVb, read-out: % Control at (ppm) indicated PYU
  inhibition of growth at 0.8 ppm: 100%
PSH; 1.5 ppm
  inhibition of growth at 1.5 ppm: 100%
PSH; 6 ppm
  inhibition of growth at 6 ppm: 100%
PSH; 25 ppm
  inhibition of growth at 25 ppm: 100%
PSH; .2 ppm
  inhibition of growth at 0.2 ppm: 0%
PSH; .4 ppm
  inhibition of growth at 0.4 ppm: 100%
PSH; .8 ppm
  inhibition of growth at 0.8 ppm: 100%
[3]
  inhibition of growth at 25 ppm: 0%
8 FUNGI; 0.2 PPM
  ANIG growth: 0
  APUL growth: 0
  CGLO growth: 0
  CRES growth: 0
  GTRA growth: 0
  PFUN growth: 0
  RRUB growth: 0
  SSER growth: 0
8 FUNGI; 1.0 PPM
  ANIG growth: 0
  APUL growth: 0
  CGLO growth: 0
  CRES growth: 0
  GTRA growth: 0
  PFUN growth: 0
  RRUB growth: 0
  SSER growth: 0
8 FUNGI; 2.5 PPM
  ANIG growth: 0
  APUL growth: 0
  CGLO growth: 1
  CRES growth: 0
  GTRA growth: 1
  PFUN growth: 0
  RRUB growth: 0
  SSER growth: 1
8 FUNGI; 25 PPM
  ANIG growth: 1
  APUL growth: 1
  CGLO growth: 1
  CRES growth: 1
  GTRA growth: 1
  PFUN growth: 1
  RRUB growth: 1
  SSER growth: 1
